The text below walks through data of patent publication US20120017924A1 (priority 2001, published 2012).

The conditions of data set [1]: smoking a cigarette; cited from earlier work.
The text on data set [2]: Absorption of nicotine from the oral cavity to the systemic circulation is dependent on the pH of the saliva, pH of the blood plasma and the pKa of nicotine, which is about 7.8. Assuming a pH of the plasma of 7.4 and of the saliva of 6.8 only about 10% of the nicotine will be in the free base form. Thus, in order to promote absorption of nicotine in a free base form, which is the form predominantly absorbed through the mucosa, the pH of the saliva must be increased. At a pH of 8.8 about 90% of the nicotine will then be in the free base form.

The subject of another data set is adult. The following applies: Merck Index; cited from earlier work.

Structures are written as SMILES. Read-outs that look alike come from different tables or passages of the source.

Regarding `CN1CCCC1c1cccnc1` (stereo not shown) [nicotine, 3-(1-methyl-2-pyrrolidinyl)-pyridine], in data set [1], the “time for nicotine to reach the brain after inhalation” value is “ten”. For the same compound, the “nicotine in the free base form” value is recorded as “about 10%” in data set [2] (assuming pH of plasma 7.4 and of saliva 6.8); “about 90%” in data set [2] (at a pH of 8.8). The “amount of nicotine able to kill an adult” value in the data set with adult was “Approximately forty”.
